#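 1) Cells in 96-well plates. 2) Compound, 48 h, 5 concentrations. 3) Linear interpolation between surrounding doses. 4) Unreached endpoint = highest concentration. GI50 is the concentration that inhibits growth by half. TGI: concentration producing complete growth inhibition.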
# What was measured:
# Assay in all cases: growth of human tumour cells (NCI), 48 h
# SW-620 colon = test system: SW-620 colon
# 786-0 renal = test system: 786-0 renal
# MCF7 breast = test system: MCF7 breast
# MALME-3M melanoma = test system: MALME-3M melanoma
# ACHN renal = test system: ACHN renal
# SF-268 CNS = test system: SF-268 CNS
# UO-31 renal = test system: UO-31 renal
# COLO 205 colon = test system: COLO 205 colon
# RPMI-8226 leukemia = test system: RPMI-8226 leukemia
# OVCAR-5 ovarian = test system: OVCAR-5 ovarian
# MOLT-4 leukemia = test system: MOLT-4 leukemia
# KM12 colon = test system: KM12 colon
# NCI-H522 lung = test system: NCI-H522 lung
# SF-539 CNS = test system: SF-539 CNS
# OVCAR-8 ovarian = test system: OVCAR-8 ovarian
# HCC-2998 colon = test system: HCC-2998 colon
# RXF 393 renal = test system: RXF 393 renal
# BT-549 breast = test system: BT-549 breast
# IGROV1 ovarian = test system: IGROV1 ovarian
# SK-MEL-28 melanoma = test system: SK-MEL-28 melanoma
# UACC-257 melanoma = test system: UACC-257 melanoma
# T-47D breast = test system: T-47D breast
# MDA-MB-435 = test system: MDA-MB-435
# HCT-116 colon = test system: HCT-116 colon
# DU-145 prostate = test system: DU-145 prostate
# MDA-MB-231 breast = test system: MDA-MB-231 breast
# SF-295 CNS = test system: SF-295 CNS
# NCI-H23 lung = test system: NCI-H23 lung
# SNB-75 CNS = test system: SNB-75 CNS
# EKVX NSCLC = test system: EKVX NSCLC
# SR leukemia = test system: SR leukemia
# LOX IMVI melanoma = test system: LOX IMVI melanoma
# M14 melanoma = test system: M14 melanoma
# TK-10 renal = test system: TK-10 renal
# UACC-62 melanoma = test system: UACC-62 melanoma
# MDA-N = test system: MDA-N
# HOP-62 NSCLC = test system: HOP-62 NSCLC
# CCRF-CEM leukemia = test system: CCRF-CEM leukemia
# HL-60(TB) leukemia = test system: HL-60(TB) leukemia
# HCT-15 colon = test system: HCT-15 colon
# SK-MEL-5 melanoma = test system: SK-MEL-5 melanoma
# HS 578T breast = test system: HS 578T breast
# CAKI-1 renal = test system: CAKI-1 renal
# K-562 leukemia = test system: K-562 leukemia
# SNB-19 CNS = test system: SNB-19 CNS
# SK-OV-3 ovarian = test system: SK-OV-3 ovarian
# SN12C renal = test system: SN12C renal
# A498 renal = test system: A498 renal
# A549 NSCLC = test system: A549 NSCLC
# PC-3 prostate = test system: PC-3 prostate
# U251 CNS = test system: U251 CNS
# HT29 colon = test system: HT29 colon
# NCI-H226 lung = test system: NCI-H226 lung
# NCI-H460 lung = test system: NCI-H460 lung
# NCI/ADR-RES ovarian = test system: NCI/ADR-RES ovarian
# OVCAR-3 ovarian = test system: OVCAR-3 ovarian
# SK-MEL-2 melanoma = test system: SK-MEL-2 melanoma
# OVCAR-4 ovarian = test system: OVCAR-4 ovarian
# HOP-92 NSCLC = test system: HOP-92 NSCLC
compound,measurement,setting,value
Nc1nc2cc(Cl)ccc2n1N,TGI,SW-620 colon,> 100 µM
same,TGI,786-0 renal,> 100 µM
same,TGI,MCF7 breast,> 100 µM
same,TGI,MALME-3M melanoma,> 100 µM
same,TGI,ACHN renal,> 100 µM
same,TGI,SF-268 CNS,> 100 µM
same,TGI,UO-31 renal,> 100 µM
same,TGI,COLO 205 colon,> 100 µM
same,TGI,RPMI-8226 leukemia,> 100 µM
same,TGI,OVCAR-5 ovarian,> 100 µM
same,TGI,MOLT-4 leukemia,> 100 µM
same,TGI,KM12 colon,> 100 µM
same,TGI,NCI-H522 lung,> 100 µM
same,TGI,SF-539 CNS,> 100 µM
same,TGI,OVCAR-8 ovarian,> 100 µM
same,TGI,HCC-2998 colon,> 100 µM
same,TGI,RXF 393 renal,> 100 µM
same,TGI,BT-549 breast,> 100 µM
same,TGI,IGROV1 ovarian,> 100 µM
same,TGI,SK-MEL-28 melanoma,> 100 µM
same,TGI,UACC-257 melanoma,> 100 µM
same,TGI,T-47D breast,> 100 µM
same,TGI,MDA-MB-435,> 100 µM
same,TGI,HCT-116 colon,> 100 µM
same,TGI,DU-145 prostate,> 100 µM
same,TGI,MDA-MB-231 breast,> 100 µM
same,TGI,SF-295 CNS,> 100 µM
same,TGI,NCI-H23 lung,> 100 µM
same,TGI,SNB-75 CNS,> 100 µM
same,TGI,EKVX NSCLC,> 100 µM
same,TGI,SR leukemia,> 100 µM
same,TGI,LOX IMVI melanoma,> 100 µM
same,TGI,M14 melanoma,> 100 µM
same,TGI,TK-10 renal,> 100 µM
same,TGI,UACC-62 melanoma,> 100 µM
same,TGI,MDA-N,> 100 µM
same,TGI,HOP-62 NSCLC,> 100 µM
same,TGI,CCRF-CEM leukemia,> 100 µM
same,TGI,HL-60(TB) leukemia,> 100 µM
same,TGI,HCT-15 colon,> 100 µM
same,TGI,SK-MEL-5 melanoma,> 100 µM
same,TGI,HS 578T breast,> 100 µM
same,TGI,CAKI-1 renal,> 100 µM
same,TGI,K-562 leukemia,> 100 µM
same,TGI,SNB-19 CNS,> 100 µM
same,TGI,SK-OV-3 ovarian,> 100 µM
same,TGI,SN12C renal,> 100 µM
same,TGI,A498 renal,> 100 µM
same,TGI,A549 NSCLC,> 100 µM
same,TGI,PC-3 prostate,> 100 µM
same,TGI,U251 CNS,> 100 µM
same,TGI,HT29 colon,> 100 µM
same,TGI,NCI-H226 lung,> 100 µM
NS(=O)(=O)c1nnc(NS(=O)(=O)c2cccc3cccnc23)s1,TGI,SW-620 colon,> 100 µM
same,TGI,786-0 renal,> 100 µM
same,TGI,NCI-H460 lung,> 100 µM
same,TGI,MCF7 breast,> 100 µM
same,TGI,ACHN renal,> 100 µM
same,TGI,SF-268 CNS,> 100 µM
same,TGI,UO-31 renal,> 100 µM
same,TGI,COLO 205 colon,> 100 µM
same,TGI,RPMI-8226 leukemia,> 100 µM
same,TGI,OVCAR-5 ovarian,> 100 µM
same,TGI,NCI/ADR-RES ovarian,> 100 µM
same,TGI,MOLT-4 leukemia,> 100 µM
same,TGI,KM12 colon,> 100 µM
same,TGI,SF-539 CNS,> 100 µM
same,TGI,OVCAR-8 ovarian,> 100 µM
same,TGI,HCC-2998 colon,> 100 µM
same,TGI,RXF 393 renal,> 100 µM
same,TGI,BT-549 breast,> 100 µM
same,TGI,SK-MEL-28 melanoma,> 100 µM
same,TGI,UACC-257 melanoma,> 100 µM
same,TGI,T-47D breast,> 100 µM
same,TGI,MDA-MB-435,> 100 µM
same,TGI,HCT-116 colon,> 100 µM
same,TGI,DU-145 prostate,> 100 µM
same,TGI,MDA-MB-231 breast,> 100 µM
same,TGI,SF-295 CNS,> 100 µM
same,TGI,NCI-H23 lung,> 100 µM
same,TGI,EKVX NSCLC,> 100 µM
same,TGI,SR leukemia,> 100 µM
same,TGI,LOX IMVI melanoma,> 100 µM
same,TGI,M14 melanoma,> 100 µM
same,TGI,TK-10 renal,> 100 µM
same,TGI,UACC-62 melanoma,> 100 µM
same,TGI,MDA-N,> 100 µM
same,TGI,HOP-62 NSCLC,> 100 µM
same,TGI,CCRF-CEM leukemia,> 100 µM
same,TGI,HCT-15 colon,> 100 µM
same,TGI,SK-MEL-5 melanoma,> 100 µM
same,TGI,HS 578T breast,> 100 µM
same,TGI,OVCAR-3 ovarian,> 100 µM
same,TGI,CAKI-1 renal,> 100 µM
same,TGI,K-562 leukemia,> 100 µM
same,TGI,SK-MEL-2 melanoma,> 100 µM
same,TGI,OVCAR-4 ovarian,> 100 µM
same,TGI,SNB-19 CNS,> 100 µM
same,TGI,SK-OV-3 ovarian,> 100 µM
same,TGI,SN12C renal,> 100 µM
same,TGI,HOP-92 NSCLC,> 100 µM
same,TGI,A498 renal,> 100 µM
same,TGI,A549 NSCLC,> 100 µM
same,TGI,U251 CNS,> 100 µM
same,TGI,NCI-H226 lung,> 100 µM
CC1(C)CCC2=C(O1)c1ccccc1C(=Nc1ccc([N+](=O)[O-])cc1)C2=O,TGI,SW-620 colon,29.6 µM
same,TGI,786-0 renal,34.1 µM
same,TGI,NCI-H460 lung,29.1 µM
same,TGI,MCF7 breast,27.7 µM
same,TGI,MALME-3M melanoma,29.7 µM
same,TGI,ACHN renal,25.5 µM
same,TGI,SF-268 CNS,> 100 µM
same,TGI,UO-31 renal,22.4 µM
same,GI50,COLO 205 colon,16.8 µM
same,TGI,COLO 205 colon,30.4 µM
same,GI50,OVCAR-5 ovarian,14.5 µM
same,TGI,OVCAR-5 ovarian,28.2 µM
same,TGI,NCI/ADR-RES ovarian,> 100 µM
same,TGI,MOLT-4 leukemia,> 100 µM
same,TGI,KM12 colon,28.2 µM
same,TGI,NCI-H522 lung,30.1 µM
same,TGI,OVCAR-8 ovarian,> 100 µM
same,TGI,HCC-2998 colon,32.2 µM
same,TGI,RXF 393 renal,32.7 µM
same,TGI,BT-549 breast,44 µM
same,TGI,IGROV1 ovarian,> 100 µM
same,TGI,SK-MEL-28 melanoma,29.8 µM
same,TGI,UACC-257 melanoma,30.1 µM
same,TGI,T-47D breast,31 µM
same,GI50,MDA-MB-435,15.8 µM
same,TGI,MDA-MB-435,29.2 µM
same,TGI,HCT-116 colon,19.9 µM
same,GI50,DU-145 prostate,16.8 µM
same,TGI,DU-145 prostate,30.4 µM
same,TGI,MDA-MB-231 breast,43.2 µM
same,GI50,SF-295 CNS,14.9 µM
same,TGI,SF-295 CNS,29.9 µM
same,GI50,NCI-H23 lung,18.3 µM
same,TGI,NCI-H23 lung,52.9 µM
same,TGI,SNB-75 CNS,38.4 µM
same,TGI,EKVX NSCLC,32.7 µM
same,TGI,SR leukemia,37.7 µM
same,GI50,LOX IMVI melanoma,7.59 µM
same,TGI,LOX IMVI melanoma,> 100 µM
same,TGI,M14 melanoma,20.5 µM
same,TGI,TK-10 renal,32.6 µM
same,TGI,UACC-62 melanoma,30.9 µM
same,TGI,MDA-N,28.1 µM
same,TGI,HOP-62 NSCLC,34.1 µM
same,GI50,CCRF-CEM leukemia,19.6 µM
same,TGI,CCRF-CEM leukemia,46.7 µM
same,TGI,HL-60(TB) leukemia,> 100 µM
same,TGI,HCT-15 colon,> 100 µM
same,TGI,SK-MEL-5 melanoma,30.3 µM
same,TGI,HS 578T breast,> 100 µM
same,TGI,OVCAR-3 ovarian,25.3 µM
same,TGI,CAKI-1 renal,32.2 µM
same,TGI,K-562 leukemia,> 100 µM
same,TGI,SK-MEL-2 melanoma,32.8 µM
same,TGI,OVCAR-4 ovarian,38.7 µM
same,TGI,SNB-19 CNS,32.5 µM
same,TGI,SK-OV-3 ovarian,34.8 µM
same,GI50,SN12C renal,15.9 µM
same,TGI,SN12C renal,29.3 µM
same,TGI,HOP-92 NSCLC,> 100 µM
same,TGI,A498 renal,33.6 µM
same,TGI,A549 NSCLC,30 µM
same,TGI,PC-3 prostate,31.5 µM
same,TGI,U251 CNS,28.9 µM
same,TGI,HT29 colon,25.2 µM
same,TGI,NCI-H226 lung,25.3 µM
